Assays:
[1] = system: A549-ACE2 infected with SARS-CoV-2; experiment: cell count relative to DMSO; higher = less toxic; settings: 24 h
A549-ACE2 = experiment: drug-induced phospholipidosis relative to tamoxifen; higher = more phospholipidosis
HepG2 [2] = experiment: cell viability relative to DMSO; higher = less toxic; settings: 72 h
U2OS [3] = experiment: as above; settings: 72 h
Vero E6 [4] = experiment: as above; settings: 72 h
Calu-3 [5] = experiment: as above; settings: 72 h
Caco-2 [6] = experiment: as above; settings: 72 h
HepG2 [7] = experiment: drug sensitivity score (DSS) for viability; higher = more toxic; extreme values may be limits of the assay; settings: 72 h
U2OS [8] = experiment: as above; settings: 72 h
Vero E6 [9] = experiment: as above; settings: 72 h
Calu-3 [10] = experiment: as above; settings: 72 h
Caco-2 [11] = experiment: as above; settings: 72 h
[12] = system: A549-ACE2 infected with SARS-CoV-2; experiment: morphology score (similarity to uninfected cells); higher = more like uninfected cells; settings: 24 h
HepG2 [13] = experiment: relative viability EC50 (midpoint between 100% and the lowest measured viability); higher = less toxic; settings: 72 h
Calu-3 [14] = experiment: as above; settings: 72 h
Caco-2 [15] = experiment: as above; settings: 72 h
[16] = system: A549-ACE2 infected with SARS-CoV-2; experiment: SARS-CoV-2 infection rate relative to DMSO; higher = more infection; settings: 24 h
U2OS [17] = experiment: relative viability EC50 (midpoint between 100% and the lowest measured viability); higher = less toxic; settings: 72 h
Vero E6 [18] = experiment: as above; settings: 72 h

COc1ccc(-c2cc3nccn3c(Nc3ncccc3C(N)=O)n2)cc1OC [BAY-61-3606]
Settings | SARS-CoV-2 infection rate, [16] [%] | cell count, [1] [%] | cell viability, Caco-2 [6] [%] | cell viability, Calu-3 [5] [%] | cell viability, HepG2 [2] [%] | cell viability, U2OS [3] [%] | cell viability, Vero E6 [4] [%] | morphology score, [12]
1 nM | – | – | 104 | 108 | 96.1 | 103 | 97.4 | –
10 nM | – | – | 89.8 | 99.1 | 99.7 | 97.4 | 99 | –
0.1 µM | 94 | 99 | – | – | – | – | – | 0.21
100 nM | – | – | 95.8 | 96 | 102 | 101 | 93.9 | –
0.3 µM | 101 | 99 | – | – | – | – | – | 0.16
1 µM | 107 | 95 | – | – | – | – | – | 0.02
1000 nM | – | – | 80.8 | 130 | 87.5 | 94.1 | 99.6 | –
3 µM | 82 | 59 | – | – | – | – | – | 0.48
10000 nM | – | – | 46.1 | 109 | 5 | 53.3 | 70.9 | –

drug-induced phospholipidosis [%], A549-ACE2
Settings | 0.3 µM | 0.833333 µM | 3.33333 µM
24 h | -2.52 | -2.28 | 22.8
48 h | 0.47 | -0.01 | –
72 h | 0.971 | -0.217 | –

Settings | drug sensitivity score | relative viability EC50 [µM]
Caco-2 [11] | 5.2 | –
Caco-2 [15] | – | 1.36
Calu-3 [10] | 0 | –
Calu-3 [14] | – | > 10
HepG2 [7] | 7.4 | –
HepG2 [13] | – | 2.1
U2OS [8] | 3.4 | –
Vero E6 [9] | 1.3 | –

Oc1cccc2cccnc12 [oxyquinoline]
cell viability [%]
Settings | Caco-2 [6] | Calu-3 [5] | HepG2 [2] | U2OS [3] | Vero E6 [4]
1 nM | 109 | 101 | 119 | 101 | 96
10 nM | 96.4 | 114 | 79.7 | 97.5 | 100
100 nM | 84.7 | 95.5 | 110 | 103 | 94.2
1000 nM | 93.2 | 104 | 102 | 97.5 | 103
10000 nM | 88.7 | 98.8 | 80.9 | 100 | 90.8

Settings | drug sensitivity score | relative viability EC50 [µM]
Caco-2 [11] | 3.1 | –
Caco-2 [15] | – | > 10
Calu-3 [10] | 0 | –
Calu-3 [14] | – | > 10
HepG2 [7] | 0.3 | –
HepG2 [13] | – | > 10
U2OS [8] | 0 | –
U2OS [17] | – | > 10
Vero E6 [9] | 0 | –
Vero E6 [18] | – | > 10

CO[C@H]1C[C@H](O[C@@H]2/C(C)=C/C[C@@H]3C[C@@H](C[C@]4(CC[C@H](C)[C@@H](C5CCCCC5)O4)O3)OC(=O)[C@@H]3C=C(C)/C(=N/O)[C@H]4OC/C(=C\C=C\[C@@H]2C)[C@]43O)O[C@@H](C)[C@@H]1O [selamectin]
Settings | SARS-CoV-2 infection rate, [16] [%] | cell count, [1] [%] | cell viability, Caco-2 [6] [%] | cell viability, Calu-3 [5] [%] | cell viability, HepG2 [2] [%] | cell viability, U2OS [3] [%] | cell viability, Vero E6 [4] [%] | morphology score, [12]
1 nM | – | – | 112 | 101 | 113 | 103 | 104 | –
10 nM | – | – | 119 | 106 | 120 | 98 | 104 | –
100 nM | – | – | 105 | 96.2 | 117 | 103 | 104 | –
0.3 µM | 103 | 96 | – | – | – | – | – | -0.14
1000 nM | – | – | 79.9 | 104 | 121 | 98.8 | 107 | –
3 µM | 79 | 105 | – | – | – | – | – | 0.43
10 µM | 48 | 93 | – | – | – | – | – | 0.75
10000 nM | – | – | 86.5 | 91.2 | 84.1 | 90.4 | 86.7 | –
30 µM | 15 | 111 | – | – | – | – | – | 0.7

Settings | drug sensitivity score | relative viability EC50 [µM]
Caco-2 [11] | 2.5 | –
Caco-2 [15] | – | > 10
Calu-3 [10] | 0 | –
Calu-3 [14] | – | > 10
HepG2 [7] | 0.1 | –
HepG2 [13] | – | > 10
U2OS [8] | 0 | –
U2OS [17] | – | > 10
Vero E6 [9] | 0 | –
Vero E6 [18] | – | > 10

CCCCCCCCCCCC(=O)O [lauric-acid]
cell viability [%]
Settings | Caco-2 [6] | Calu-3 [5] | HepG2 [2] | U2OS [3] | Vero E6 [4]
1 nM | 94.1 | 102 | 105 | 102 | 111
10 nM | 102 | 108 | 106 | 95.3 | 113
100 nM | 111 | 101 | 87.4 | 102 | 101
1000 nM | 110 | 100 | 96 | 97.6 | 104
10000 nM | 98.2 | 97.5 | 94.3 | 98.1 | 93.5

Settings | drug sensitivity score | relative viability EC50 [µM]
Caco-2 [11] | 0 | –
Caco-2 [15] | – | > 10
Calu-3 [10] | 0 | –
Calu-3 [14] | – | > 10
HepG2 [7] | 0 | –
HepG2 [13] | – | > 10
U2OS [8] | 0 | –
U2OS [17] | – | > 10
Vero E6 [9] | 0 | –
Vero E6 [18] | – | > 10

CC(C)(C)OC(=O)N[C@H]1CCCCC/C=C\[C@@H]2C[C@@]2(C(=O)NS(=O)(=O)C2CC2)NC(=O)[C@@H]2C[C@@H](OC(=O)N3Cc4cccc(F)c4C3)CN2C1=O [danoprevir]
cell viability [%]
Settings | Caco-2 [6] | Calu-3 [5] | HepG2 [2] | U2OS [3] | Vero E6 [4]
1 nM | 98.1 | 107 | 109 | 104 | 106
10 nM | 98.5 | 103 | 104 | 101 | 98.8
100 nM | 98.4 | 85.1 | 94.2 | 98.9 | 98.6
1000 nM | 101 | 107 | 92 | 99.4 | 103
10000 nM | 83 | 102 | 95.1 | 98.2 | 103

Settings | drug sensitivity score | relative viability EC50 [µM]
Caco-2 [11] | 0.3 | –
Caco-2 [15] | – | > 10
Calu-3 [10] | 0 | –
Calu-3 [14] | – | > 10
HepG2 [7] | 0 | –
HepG2 [13] | – | > 10
U2OS [8] | 0 | –
U2OS [17] | – | > 10
Vero E6 [9] | 0 | –
Vero E6 [18] | – | > 10

CCn1cnc(C(=O)NC)c1C(=O)NC [ethimizol]
cell viability [%]
Settings | Caco-2 [6] | Calu-3 [5] | HepG2 [2] | U2OS [3] | Vero E6 [4]
1 nM | 97.5 | 102 | 89.3 | 98.6 | 96.4
10 nM | 104 | 92.4 | 114 | 102 | 96.2
100 nM | 91.5 | 91.3 | 103 | 98.1 | 96.4
1000 nM | 99.1 | 102 | 104 | 98.2 | 99.9
10000 nM | 92.3 | 99.1 | 111 | 94.9 | 100

Settings | drug sensitivity score | relative viability EC50 [µM]
Caco-2 [11] | 0 | –
Caco-2 [15] | – | > 10
Calu-3 [10] | 0 | –
Calu-3 [14] | – | > 10
HepG2 [7] | 0 | –
HepG2 [13] | – | > 10
U2OS [8] | 0 | –
U2OS [17] | – | > 10
Vero E6 [9] | 0 | –
Vero E6 [18] | – | > 10

N[C@@H](Cc1cc(CP(=O)(O)O)cc(-c2ccccc2Cl)c1)C(=O)O [SDZ-220-581]
cell viability [%]
Settings | Caco-2 [6] | Calu-3 [5] | HepG2 [2] | U2OS [3] | Vero E6 [4]
1 nM | 102 | 107 | 96 | 99.8 | 95.8
10 nM | 91.5 | 92.8 | 99.6 | 99.3 | 102
100 nM | 91 | 101 | 92.6 | 96.8 | 92.7
1000 nM | 101 | 98.6 | 101 | 106 | 95.9
10000 nM | 111 | 114 | 104 | 105 | 107

Settings | drug sensitivity score | relative viability EC50 [µM]
Caco-2 [11] | 0 | –
Caco-2 [15] | – | > 10
Calu-3 [10] | 0 | –
Calu-3 [14] | – | > 10
HepG2 [7] | 0 | –
HepG2 [13] | – | > 10
U2OS [8] | 0 | –
U2OS [17] | – | > 10
Vero E6 [9] | 0 | –
Vero E6 [18] | – | > 10
